{"source": "patent US20190105261A1", "about": "“METHODS AND COMPOSITIONS FOR TOPICAL DELIVERY” (Illustris Pharmaceuticals, Inc., priority 2017, published 2019)", "key": {"[1]": {"settings": "1% sildenafil, 12-20 hours", "text": "Replicates of mid-dermal grafts were employed in a transcutaneous flux rig per relevant protocols."}, "[2]": {"assay": "Oral sildenafil bioavailability and assumed tissue concentration", "settings": "assuming uniform tissue distribution, average 75 kg male"}, "[3]": {"settings": "in vivo, po; cited from earlier work"}, "[4]": {"assay": "Sodium salicylate penetration into mid-dermal grafts, OD290 (Example 21)", "settings": "1% sodium salicylate, 12-20 hours", "method": "Replicates of mid-dermal grafts (grafts and punches for flux rig per Illustris sops), were employed in a transcutaneous flux rig per relevant protocols. […] Flux was continued for 12-20 hours with samples applied and left on donor surfaces."}, "[5]": {"settings": "12-20 hours", "method": "Porcine buccal tissue was harvested and cleaned of additional tissue. Punch biopsies (n=4 each) were obtained and employed in a transcutaneous flux rig per relevant protocols. […] Flux was continued for 12-20 hours with samples applied and left on donor surfaces."}, "[6]": {"assay": "Gabapentin delivery into porcine skin grafts, UPLC-MS", "assay_type": "in vitro ADME", "settings": "1% gabapentin, 12-20 hours", "experimental": "Delivery of gabapentin with hyaluronic acid into skin in vitro was measured using porcine skin grafts, and compared to delivery of gabapentin from a composition of gabapentin in saline (with no decoy molecule). Groups consisted of A) 1% gabapentin in saline (n=8 replicates), B) 1% gabapentin plus 1% sodium hyaluronate decoy of 3,000 Da in saline (n=8 replicates) or C) saline alone (n=8 replicates) in donor cells.\nBriefly, tissues were incubated overnight in 0.5 mL of 50% acetonitrile in deionized water at 55° C. with agitation. Calibration standards and tissue extraction solvent samples were diluted 10× in deionized water before analysis. Diluted standards and samples were analyzed at 1 μL injection volumes. Concentrations were reported as μg/g of gabapentin in tissue."}, "[7]": {"settings": "1 wt. % minocycline, in vitro", "experimental": "Delivery of minocycline into porcine skin in vitro was measured and compared to delivery of minocycline from a composition of minocycline in saline (i.e, with no decoy molecule). Compositions were prepared containing of 1 wt. % minocycline and 1% of decoy molecule of hyaluronic acid with three molecular weights: 10,000 Da mean, 20,000 Da mean, and 30,000 Da mean. A control formulation containing 1 wt % minocycline in saline was also prepared"}}}
{"smiles": "CCCc1nn(C)c2c(=O)[nH]c(-c3cc(S(=O)(=O)N4CCN(C)CC4)ccc3OCC)nc12", "note": "[Sildenafil alone, sildenafil]", "values": [{"measurement": "sildenafil tissue concentration", "setting": "[1]", "value": "not detectable"}, {"measurement": "tissue concentration at currently approved therapeutic dose", "setting": "[2]", "value": "0.137 ug sildenafil per g of tissue"}, {"measurement": "bioavailability", "setting": "[3]", "value": 41, "unit": "%"}]}
{"smiles": "O=C([O-])c1ccccc1O.[Na+]", "note": "[Sodium salicylate, sodium salicylate]", "values": [{"measurement": "OD290 above saline (sodium salicylate in skin homogenate)", "setting": "[4]", "value": 0.0165, "unit": "AU"}]}
{"smiles": "O=C(O)c1ccccc1O", "note": "[salicylate alone, salicylate]", "values": [{"measurement": "salicylate penetration through buccal tissue versus saline alone", "setting": "[5]", "value": "not statistically significant over saline alone"}]}
{"smiles": "NCC1(CC(=O)O)CCCCC1", "note": "[gabapentin alone, gabapentin]", "values": [{"measurement": "tissue levels of gabapentin", "setting": "[6]", "value": "0.09 μg of gabapentin per gram of tissue"}]}
{"smiles": "CN(C)c1ccc(O)c2c1C[C@H]1C[C@H]3[C@H](N(C)C)C(O)=C(C(N)=O)C(=O)[C@@]3(O)C(O)=C1C2=O", "note": "[minocycline]", "values": [{"measurement": "penetration of minocycline into porcine skin", "setting": "[7]", "value": "low native penetration"}]}
